Experiments:
Assay in all cases: differential drug sensitivity score (dDSS) relative to sarcoma reference cohort mean DSS (DSS units (0-100 scale difference)); higher = more selective sensitivity than reference sarcomas
Settings in all cases: exposure time: 72 h; concentration range: 10-10000 nM
CDS-ZH001-2 = test system: CDS-ZH001-2 (patient-derived CIC-DUX4 sarcoma tumoroid)
Procedure: (§1)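 Drug response profiling of patient-derived Ewing sarcoma and CIC::DUX4 sarcoma tumoroid models (or cells tested directly after isolation from the tumor, 'direct'). The DSS is the normalised AUC (0-100); dDSS is the sample DSS minus the mean DSS of a 34-sarcoma reference cohort profiled in the same lab.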

CDS-ZH001 = test system: CDS-ZH001 (patient-derived CIC-DUX4 sarcoma tumoroid)
Procedure: as §1

CDS-ZH002 direct = test system: CDS-ZH002 direct (CIC-DUX4 sarcoma cells right after isolation)
Procedure: as §1

CDS-ZH002 = test system: CDS-ZH002 (patient-derived CIC-DUX4 sarcoma tumoroid)
Procedure: as §1

CDS-ZH003 = test system: CDS-ZH003 (patient-derived CIC-DUX4 sarcoma tumoroid)
Procedure: as §1

ES-ZH001 = test system: ES-ZH001 (patient-derived Ewing sarcoma tumoroid)
Procedure: as §1

ES-ZH002 = test system: ES-ZH002 (patient-derived Ewing sarcoma tumoroid)
Procedure: as §1

ES-ZH004 = test system: ES-ZH004 (patient-derived Ewing sarcoma tumoroid)
Procedure: as §1

ES-ZH007 = test system: ES-ZH007 (patient-derived Ewing sarcoma tumoroid)
Procedure: as §1

ES-ZH008 = test system: ES-ZH008 (patient-derived Ewing sarcoma tumoroid)
Procedure: as §1

ES-ZH009 = test system: ES-ZH009 (patient-derived Ewing sarcoma tumoroid)
Procedure: as §1

ES-ZH016 direct = test system: ES-ZH016 direct (Ewing sarcoma cells right after isolation)
Procedure: as §1

ES-ZH016 = test system: ES-ZH016 (patient-derived Ewing sarcoma tumoroid)
Procedure: as §1

Structure (SMILES) | differential drug sensitivity score (CDS-ZH001-2) | differential drug sensitivity score (CDS-ZH001) | differential drug sensitivity score (CDS-ZH002 direct) | differential drug sensitivity score (CDS-ZH002) | differential drug sensitivity score (CDS-ZH003) | differential drug sensitivity score (ES-ZH001) | differential drug sensitivity score (ES-ZH002) | differential drug sensitivity score (ES-ZH004) | differential drug sensitivity score (ES-ZH007) | differential drug sensitivity score (ES-ZH008) | differential drug sensitivity score (ES-ZH009) | differential drug sensitivity score (ES-ZH016 direct) | differential drug sensitivity score (ES-ZH016)
CCNC(=O)C[C@@H]1N=C(c2ccc(Cl)cc2)c2cc(OC)ccc2-n2c(C)nnc21 [Molibresib] | -1 | -1.2 | -3.9 | -5.5 | -5.3 | 0.4 | 5.5 | -0.4 | -1.8 | 6.8 | 5.5 | 4.2 | 0.4
N#CCNC(=O)c1ccc(-c2ccnc(Nc3ccc(N4CCOCC4)cc3)n2)cc1 [Momelotinib] | -1.2 | -1.2 | -1.2 | -1.2 | -1.2 | 4 | 3.7 | -1.2 | -1.2 | -0.8 | 0.5 | -0.5 | 2.6
CCCN(CCC)C(=O)C1=Cc2ccc(-c3ccc(C(=O)N4CCCC4)cc3)cc2N=C(N)C1 [Motolimod] | 4.9 | -2 | 2.1 | -1.9 | -3.1 | 1.9 | 1.9 | -3.1 | -2.9 | 0.1 | -1.5 | 0.4 | 0.2
CO/N=C1\C[C@]2(C[C@@H]3C[C@@H](C/C=C(\C)C[C@@H](C)/C=C/C=C4\CO[C@@H]5[C@H](O)C(C)=C[C@@H](C(=O)O3)[C@]45O)O2)O[C@H](/C(C)=C/C(C)C)[C@H]1C [Moxidectin] | -5 | 0.1 | 0 | -3.7 | -4.8 | 0.2 | 3.7 | 0.9 | -0.2 | -1.8 | 3.8 | 0 | -0.4
O=c1cc(N2CCOCC2)oc2c(-c3cccc4c3sc3ccccc34)cccc12 [NU7441] | 1.9 | -4.3 | 1.5 | -4 | -4.3 | 0 | 8.5 | -1.9 | -4.3 | -0.8 | 2.9 | 1.1 | -3.9
CC1(C)CCC(c2ccc(Cl)cc2)=C(CN2CCN(c3ccc(C(=O)NS(=O)(=O)c4ccc(N[C@H](CCN5CCOCC5)CSc5ccccc5)c(S(=O)(=O)C(F)(F)F)c4)cc3)CC2)C1 [Navitoclax] | 2.5 | -2.9 | -5.8 | -7.6 | 0.6 | 6.7 | 17.3 | -3.4 | -7.4 | 10.4 | 4.9 | 13.7 | -6.4
CN1C(=O)N[C@H](Cc2c[nH]c3c(Cl)cccc23)C1=O [Necrostatin-2] | 8.4 | -2.7 | -2.5 | -1.9 | -2.7 | -1 | 2.2 | 7.5 | -2.7 | 13.8 | -2.7 | 15.6 | -1.3
O=c1ncn2nc(Sc3ccc(F)cc3F)ccc2c1-c1c(Cl)cccc1Cl [Neflamapimod] | 5 | -2.7 | 1 | -1.2 | -5.6 | 3.5 | 5.8 | 0.5 | 0.5 | 7.4 | 5.9 | 11.9 | 2.9
COc1nc(N)nc2c1ncn2[C@@H]1O[C@H](CO)[C@@H](O)[C@@H]1O [Nelarabine] | -2.5 | -2.5 | -2.5 | -2.5 | -2.5 | 3.2 | 8.4 | 1 | -1.6 | 5.2 | -2.5 | -2.5 | -2.5
CCCCN(Cc1ccc(C(=O)NO)cc1)C(=O)Nc1ccccc1 [Nexturastat A] | 5.3 | 0.8 | 2.4 | -0.4 | 2.1 | 2.9 | 0.9 | -0.7 | 2.1 | 5 | 0.5 | 4.4 | -1.3
Cc1cn(-c2cc(NC(=O)c3ccc(C)c(Nc4nccc(-c5cccnc5)n4)c3)cc(C(F)(F)F)c2)cn1 [Nilotinib] | -0.7 | 0.6 | -0.7 | -0.7 | -0.7 | 0.5 | 4.1 | 1.6 | -0.3 | -0.6 | -0.4 | -0.7 | -0.7
COc1ccc(C2=N[C@@H](c3ccc(Cl)cc3)[C@@H](c3ccc(Cl)cc3)N2C(=O)N2CCNC(=O)C2)c(OC(C)C)c1 [Nutlin-3] | 8.4 | -1.8 | 1 | -1.3 | 3.6 | -4.6 | 8 | -4.6 | -4.6 | 1.4 | -4.4 | 14 | 3.3
COC1=CC(c2cc3ccccc3[nH]2)=N/C1=C\c1[nH]c(C)cc1C [Obatoclax] | -0.2 | -3.8 | 4.4 | -2.4 | -3 | -0.7 | 2.9 | 6.9 | 7.5 | 4 | 1.5 | 3.3 | 2.1
O=C(c1cc(Cc2n[nH]c(=O)c3ccccc23)ccc1F)N1CCN(C(=O)C2CC2)CC1 [Olaparib] | -2 | -3.8 | -5.3 | -5.3 | -5.3 | 8.4 | 15 | 11.2 | 4 | 10.3 | -0.2 | 11.3 | 7.1
COc1ncc(-c2ccc3nccc(-c4ccnnc4)c3c2)cc1NS(=O)(=O)c1ccc(F)cc1F [Omipalisib] | 8.8 | 6.3 | -3.7 | -4.5 | 5.6 | -3.7 | 12.8 | 0.9 | 6.3 | 11.4 | 9 | 2.7 | 2
CC(C)c1cc(C(=O)N2Cc3ccc(CN4CCN(C)CC4)cc3C2)c(O)cc1O [Onalespib] | 0.4 | -3.5 | -2.7 | -6.3 | -1.5 | 3.6 | 9.5 | -1.2 | -3 | 7.7 | 4.9 | 6.1 | -3.1
O=C(O)C(=O)O.[NH-][C@@H]1CCCC[C@H]1[NH-].[Pt+2] [Oxaliplatin] | 5.9 | 2.2 | 7.7 | 5.9 | -4.8 | -0.1 | -2 | 0.2 | 1 | 2.9 | -5 | -5 | 1.2
Nc1ncc(-c2nc(N3CCOCC3)nc(N3CCOCC3)n2)c(C(F)F)n1 [PQR514] | 7 | 3.9 | -2.6 | -6.5 | -0.5 | -3.3 | 15.5 | 0.8 | -1.3 | 10.1 | 7.1 | 5.4 | 5
Nc1cc(C(F)F)c(-c2nc(N3C4CCC3COC4)nc(N3C4CCC3COC4)n2)cn1 [PQR620] | 0.8 | 1.5 | -3.3 | -3.2 | 5 | 0.1 | 10.2 | 5.3 | 2 | 4.4 | 2.8 | -3.2 | -0.4
C=CC(=O)N1CCN(CCCn2c(=O)c(-c3c(Cl)c(OC)cc(OC)c3Cl)cc3cnc(NC)nc32)CC1 [PRN1371] | -3.3 | -9.1 | -4.8 | -10.8 | -11.5 | 11.9 | 15.7 | 15.6 | 5.7 | 21.1 | -0.7 | 11.1 | 2.4
CC(=O)O[C@H]1C(=O)[C@@]2(C)[C@H]([C@H](OC(=O)c3ccccc3)[C@]3(O)C[C@H](OC(=O)[C@H](O)[C@@H](NC(=O)c4ccccc4)c4ccccc4)C(C)=C1C3(C)C)[C@]1(OC(C)=O)CO[C@@H]1C[C@@H]2O [Paclitaxel] | 4.1 | 7.6 | -5.6 | -2.2 | -8 | 24.6 | 23 | 8.9 | 16.2 | 15.7 | 19.6 | 14 | 16.3
CC(=O)c1c(C)c2cnc(Nc3ccc(N4CCNCC4)cn3)nc2n(C2CCCC2)c1=O [Palbociclib] | 10.4 | 6.1 | -0.3 | 1 | -1.6 | -2.5 | 11.4 | 2.4 | 6.9 | 5.8 | 2.9 | -7.7 | 0
Cc1[nH]c2ccccc2c1CCNCc1ccc(/C=C/C(=O)NO)cc1 [Panobinostat] | 4.9 | -2.7 | 2 | -1.1 | -3.6 | 3.6 | 4 | 5.4 | 6.3 | 6.6 | 10.3 | 7.4 | 6.6
Cc1ccc(Nc2nccc(N(C)c3ccc4c(C)n(C)nc4c3)n2)cc1S(N)(=O)=O [Pazopanib] | 14.6 | -2.9 | -1.4 | 0.6 | 0.4 | -2.9 | -2.9 | -2.9 | -2.9 | -2.9 | -2.9 | 17.4 | -0.7
NS(=O)(=O)OC[C@@H]1C[C@@H](n2ccc3c(N[C@H]4CCc5ccccc54)ncnc32)C[C@@H]1O [Pevonedistat] | -2.1 | 8.7 | 7.6 | -1.6 | 0.7 | 11.4 | 9.3 | 2.4 | 3.6 | 5.9 | 2.9 | 1.9 | 8.3
FC(F)(F)c1ccc(CNc2ccc(Cc3c[nH]c4ncc(Cl)cc34)cn2)cn1 [Pexidartinib] | 0.5 | -1.5 | 5.7 | -1.5 | -1.3 | -1.5 | -1.3 | 0 | -1.5 | -0.7 | -0.8 | 3.5 | 0.7
O=c1[nH]c2ccccc2n1C1CCN(CCCC(c2ccc(F)cc2)c2ccc(F)cc2)CC1 [Pimozide] | 6.3 | 3.4 | -2.1 | 0.9 | 5.1 | -4.3 | -2.4 | -3.1 | -2.3 | -3.6 | 7.1 | 7.3 | 5.5
Nc1cccc2c1C(=O)N(C1CCC(=O)NC1=O)C2=O (configuration not stated) [Pomalidomide] | -1.4 | -0.6 | -1.4 | -1.4 | -1.3 | -1.1 | 6.4 | 0.4 | -1.2 | 3 | -1.3 | -1.2 | -1.4
Cc1ccc(C(=O)Nc2ccc(CN3CCN(C)CC3)c(C(F)(F)F)c2)cc1C#Cc1cnc2cccnn12 [Ponatinib] | -3.9 | -6.2 | -3.1 | -3.6 | -0.9 | 5.6 | 10 | 0.5 | -2.6 | 3.2 | 0.2 | 7.8 | -3.6

— the supplement of paper PMC12370961
